{"source": "patent US8680097B2", "about": "“Benzothiophene alkanol piperazine derivatives and their use as antidepressant” (CSPC Zhongqi Pharmaceutical Technology (Shijiazhuang) Co. …, priority 2008, dated 2014)", "key": {"[1]": {"test_system": "uptake of DA by brain synaptosomes", "assay": "[3H]DA reuptake by rat brain synaptosomes", "assay_type": "biochemical", "details": "for inhibition effect on the uptake of DA: rat corpus striatum synaptosomes, control drugs and tested substances all 0.1 mmol/L (method and b297 say 10 μmol/L), inhibition rate; for inhibition activity on the reuptake of DA (in words): at the concentration of 10 μmol/L"}, "[2]": {"test_system": "uptake of 5-HT by brain synaptosomes", "assay": "[3H]5-HT reuptake by rat brain synaptosomes", "assay_type": "biochemical", "details": "at the concentration of 10 μmol/L"}, "[3]": {"test_system": "uptake of NA by brain synaptosomes", "assay": "[3H]NA reuptake by rat brain synaptosomes", "assay_type": "biochemical", "details": "at the concentration of 10 μmol/L"}, "[4]": {"assay": "Forced Swimming Test in Learned Helplessness Experiment", "assay_type": "in vivo", "text": "2. Results of in vivo antidepression of compound VII-10"}, "[5]": {"test_system": "mice", "assay": "Acute toxicity, LD50 single-fed", "assay_type": "in vivo", "details": "statistics of Bliss", "protocol": "Initial screening was performed by the method reported in “Modern Pharmacological Experiments Mothods” edited by Zhang Juntian."}, "[6]": {"test_system": "histidine auxotrophic mutant strains of Salmonella TA97, TA98, TA100 and TA102", "assay_type": "cell-based", "text": "4. Bacterial reverse mutation test for VII-10.\nBacterium: histidine auxotrophic mutant strains of Salmonella TA97, TA98, TA100 and TA102\nExperimental method: the method reported in the literature: Maron D M et al: (1983) Mutay Res. 113, 173-216.\nResults: The experiment included two parts: −S9 and +S9. […] The other dosages had no bacteriostatic effect for all the strains, with a well growing background. […] Ames test result was negative."}}, "note": "Read-outs that look alike come from different tables or passages of the source."}
{"smiles": "CC(C(O)c1csc2ccccc12)N1CCN(Cc2ccccc2)CC1", "note": "(single isomer, unassigned) [VII-5, N^1-benzyl-N^4-[1-methyl-2-hydroxy-2-(benzo[b]thiophene-3-yl)]ethylpiperazine (erythro isomer)]", "values": [{"measurement": "inhibition effect on the uptake of DA", "setting": "[1]", "result": "11.4 ± 11.5"}]}
{"smiles": "Cl.OC(CCN1CCN(CC=Cc2ccccc2)CC1)c1csc2ccccc12", "note": "(stereo not drawn) [VII-11, N^1-cinnamyl-N^4-[3-hydroxy-3-(benzo[b]thiophene-3-yl)]propylpiperazine hydrochloride]", "values": [{"measurement": "inhibition activity on the reuptake of 5-HT (in words)", "setting": "[2]", "result": "stronger inhibition activity"}, {"measurement": "inhibition activity on the reuptake of NA (in words)", "setting": "[3]", "result": "stronger inhibition activity"}, {"measurement": "inhibition activity on the reuptake of DA (in words)", "setting": "[1]", "result": "stronger inhibition activity"}, {"measurement": "inhibition effect on the uptake of DA", "setting": "[1]", "result": "97.9 ± 1.1"}]}
{"smiles": "Clc1ccc([C@]23CNC[C@H]2C3)cc1Cl", "note": "[DOV 21947, reference compound]", "values": [{"measurement": "inhibition effect on the uptake of DA", "setting": "[1]", "result": "104.1 ± 4.2 ^"}]}
{"smiles": "COc1ccc(C(CN(C)C)C2(O)CCCCC2)cc1", "note": "(stereo not drawn) [Venlafaxine, reference compound]", "values": [{"measurement": "immobility time", "setting": "[4]; dosage 4.56 mg/kg", "result": "57.1 ± 37.8", "unit": "s"}, {"measurement": "immobility time", "setting": "[4]; dosage 9.12 mg/kg", "result": "77.4 ± 47.2", "unit": "s"}, {"measurement": "immobility time", "setting": "[4]; dosage 18.24 mg/kg", "result": "80.8 ± 46.8", "unit": "s"}, {"measurement": "inhibition effect on the uptake of DA", "setting": "[1]", "result": "48.6 ± 4.1 ^"}]}
{"smiles": "CC(c1ccccc1)N1CCN(CCC(O)c2csc3ccccc23)CC1.Cl", "note": "(stereo not drawn) [VII-12, N^1-α-phenethyl-N^4-[3-hydroxy-3-(benzo[b]thiophene-3-yl)]propylpiperazine hydrochloride]", "values": [{"measurement": "inhibition activity on the reuptake of 5-HT (in words)", "setting": "[2]", "result": "stronger inhibition activity"}, {"measurement": "inhibition activity on the reuptake of NA (in words)", "setting": "[3]", "result": "stronger inhibition activity"}, {"measurement": "inhibition activity on the reuptake of DA (in words)", "setting": "[1]", "result": "stronger inhibition activity"}, {"measurement": "inhibition effect on the uptake of DA", "setting": "[1]", "result": "98.0 ± 1.5"}]}
{"smiles": "Cl.OC(CCN1CCN(Cc2ccccc2)CC1)c1csc2ccccc12", "note": "(stereo not drawn) [VII-10, N^1-benzyl-N^4-[3-hydroxy-3-(benzo[b]thiophene-3-yl)]propylpiperazine hydrochloride]", "values": [{"measurement": "LD50", "setting": "[5]", "result": 1100, "unit": "mg/kg"}, {"measurement": "effect on immobility time in swimming (in words)", "setting": "[4]", "result": "significantly reduce the immobility time"}, {"measurement": "immobility time", "setting": "[4]; dosage 6.35 mg/kg", "result": "90.7 ± 46.3", "unit": "s"}, {"measurement": "immobility time", "setting": "[4]; dosage 12.7 mg/kg", "result": "87.5 ± 35.7", "unit": "s"}, {"measurement": "immobility time", "setting": "[4]; dosage 25.4 mg/kg, hydrochloride", "result": "84 ± 48.9", "unit": "s"}, {"measurement": "inhibition activity on the reuptake of 5-HT (in words)", "setting": "[2]", "result": "stronger inhibition activity"}, {"measurement": "inhibition activity on the reuptake of NA (in words)", "setting": "[3]", "result": "stronger inhibition activity"}, {"measurement": "Ames test result", "setting": "[6]; TA97, TA98, TA100, TA102, −S9 and +S9", "result": "negative"}, {"measurement": "dose showing bacteriostatic effect", "setting": "[6]; TA97 in +S9 test system", "result": 5000, "unit": "μg per culture dish"}, {"measurement": "dose showing bacteriostatic effect", "setting": "[6]; TA98 in −S9 test system", "result": 5000, "unit": "μg per culture dish"}, {"measurement": "number of reverse mutation colonies", "setting": "[6]; all dosages tested, both −S9 and +S9 test systems", "result": "no significant increase"}, {"measurement": "inhibition activity on the reuptake of DA (in words)", "setting": "[1]", "result": "stronger inhibition activity"}, {"measurement": "inhibition effect on the uptake of DA", "setting": "[1]", "result": "78.0 ± 8.0"}]}
{"smiles": "Cl.OC(CCN1CCN(CCOC(c2ccc(F)cc2)c2ccc(F)cc2)CC1)c1csc2ccccc12", "note": "(stereo not drawn) [VII-15]", "values": [{"measurement": "inhibition activity on the reuptake of 5-HT (in words)", "setting": "[2]", "result": "stronger inhibition activity"}, {"measurement": "inhibition activity on the reuptake of NA (in words)", "setting": "[3]", "result": "stronger inhibition activity"}, {"measurement": "inhibition activity on the reuptake of DA (in words)", "setting": "[1]", "result": "stronger inhibition activity"}, {"measurement": "inhibition effect on the uptake of DA", "setting": "[1]", "result": "102.2 ± 1.3 ^"}]}
{"smiles": "CC(C(O)c1csc2ccccc12)N1CCN(Cc2ccccc2)CC1", "note": "(single isomer, unassigned) [VII-4, N^1-benzyl-N^4-[1-methyl-2-hydroxy-2-(benzo[b]thiophene-3-yl)]ethylpiperazine (threo isomer)]", "values": [{"measurement": "inhibition effect on the uptake of DA", "setting": "[1]", "result": "14.5 ± 10.0"}]}
{"smiles": "Cl.OC(CCN1CCN(C(c2ccccc2)c2ccccc2)CC1)c1csc2ccccc12", "note": "(stereo not drawn) [VII-14, N^1-benzhydryl-N^4-[3-hydroxy-3-(benzo[b]thiophene-3-yl)]propylpiperazine hydrochloride]", "values": [{"measurement": "inhibition activity on the reuptake of 5-HT (in words)", "setting": "[2]", "result": "stronger inhibition activity"}, {"measurement": "inhibition activity on the reuptake of NA (in words)", "setting": "[3]", "result": "stronger inhibition activity"}, {"measurement": "inhibition activity on the reuptake of DA (in words)", "setting": "[1]", "result": "stronger inhibition activity"}, {"measurement": "inhibition effect on the uptake of DA", "setting": "[1]", "result": "87.3 ± 4.3"}]}
